From patent publication US9241920B2, “Inhibition of c-Myc ubiquitination to prevent cancer initiation and progression” (NEW YORK UNIVERSITY, priority 2011, dated 2016)

Experiments:
[1] = tested on: human CD34+ cells (CML patients) depleted of Fbw7; assay: Apoptosis (annexin V staining) of Fbw7-depleted human CML CD34+ cells; assay type: cell-based; conditions: human CD34+ cells after depletion of Fbw7; decrease of c-Myc activity
Protocol: Viable bone marrow mononuclear cells from two treatment-naïve patients in the chronic phase of CML were obtained from AllCells. To examine the role of FBW7 in the maintenance of LICs for human CML, bone marrow mononuclear cells were transfected with 300 nM FBW7 siRNAs (Stealth Select RNAi siRNA, Invitrogen) by electroporation with the use of an Amaxa Nucleofector II device (Lonza) according to the manufacture's instructions. The transfected cells were then stained with antibodies to human CD34 (8G12), CD3 (SK7), CD16 (3G8), CD19 (SJ25C1), CD20 (L27), CD14 (MφP9), and CD56 (NCAM16.2) (BD Biosciences). CD3, CD16, CD19, CD20, CD14, and CD56 were used as lineage markers. CD34^+Lin^− cells were purified by FACS and cocultured with OP-9 cells for 7 days. For assays of apoptosis, cells were collected after 7 days of culture, stained for cell surface markers, further incubated for 15 min with annexin V (BD Biosciences) and then analyzed by flow cytometry.

[2] = tested on: human CD34+Lin- cells (CML patients) depleted of Fbw7; assay: Colony forming unit assay of Fbw7-depleted human CML CD34+ cells; assay type: cell-based; conditions: human CD34+ cells after depletion of Fbw7; decrease of c-Myc activity
Protocol: For the in vitro CFU experiments, mice received 5 intra-peritoneal (IP) injections of poly(I:C) at a dose of 20 ug/g, and LSK cells were purified 10 days post poly(I:C). LSK cells were purified and infected with Bcr-Abl-NGFR or Bcr-Abl-GFP retrovirus as described above. Bcr-Abl^+ lineage negative cells were sorted 72 hours after the first infection and 1000 cells were seeded into cytokine-supplemented methylcellulose medium (MethoCult 3434, Stem Cell Technologies). Colonies were counted 7 days after they were seeded and 4000 cells were re-plated and colonies were counted after another 7 days (14 days total). For human CFU assay, cells were collected after 7 days of culture, and 1×10^3 CD34^+Lin^− cells were transferred to Methocult medium (MethoCult GF H4435, StemCell Technologies). The number of colonies was counted 1 week after plating.
Viable bone marrow mononuclear cells from two treatment-naïve patients in the chronic phase of CML were obtained from AllCells. […] For assays of apoptosis, cells were collected after 7 days of culture, stained for cell surface markers, further incubated for 15 min with annexin V (BD Biosciences) and then analyzed by flow cytometry.

## CCc1ccc(/C=C2/SC(=S)NC2=O)cc1 [10058-F4]
[1]
  apoptosis of Fbw7-depleted cells: rescued cells from apoptosis
[2]
  colony forming ability of Fbw7-depleted cells: rescued
